Data on 5 compounds can be found in US6955921B2, “Trypsin substrate and diagnostic device, and method of using same” (Bayer Corporation, priority 2001, dated 2005).

SMILES strings stand for the structures. Where “and” joins values, the source holds several entries; their conditions need not be identical. Identical values can stand only once.

In assay [1] the target is T1, Bovine Pancreatic Trypsin (Bos taurus, UniProt P00760).
T1 construct: purchased Calbiochem 6502; host or cells: bovine pancreas
T1 sequence (P00760 24-246): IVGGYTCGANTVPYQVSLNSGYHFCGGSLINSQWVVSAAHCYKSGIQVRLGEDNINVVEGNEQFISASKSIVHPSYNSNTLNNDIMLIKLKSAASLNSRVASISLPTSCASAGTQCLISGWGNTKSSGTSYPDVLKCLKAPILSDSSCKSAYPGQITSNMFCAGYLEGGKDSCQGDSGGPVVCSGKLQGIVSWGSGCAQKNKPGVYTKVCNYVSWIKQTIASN
The assay can be described thus: Dry-phase analytical element (reagent strip) for UTI measurement, decode from reflectance. Type of assay: biochemical. The conditions noted are these: reflectance at 15 and 60 seconds; for decode, Negative Sample: Negative Sample = Water, substrate 1.25 mM in second dip; for decode, Positive Sample: Positive Sample = Water with 200 IU/mL urine trypsin inhibitor (ulinastatin). As to the method:
Reagent strips were made according to the following procedure: Filter paper (240 C grade from Ahlstrom Inc.) was saturated with the first dip solution and dried for 2 minutes at 80° C. and 4 minutes at 60° C. The resultant paper was then saturated with the second dip solution and dried for 6 minutes at 50° C. to form the completed reagent paper. Adhesive ([…] from 3M Inc.) was applied to the reagent paper and it was affixed to a polystyrene handle in the form of pads, which were 0.20 inch×0.20 inches square. A. Composition of the First Dip: • a. Water • b. Bicine Buffer (600 mM) • c. Ethylene glycol bis (β-aminoethyl ether) N,N,N',N'-tetra-acetic acid (EGTA) (5.1 mM) • d. Plasdone (PVP K30 from Sigma-Aldrich) (1.75% by weight) • e. MgSO4 (660 mM) • f. Bovine Pancreatic Trypsin (Calbiochem Cat. No. 6502) (272 units/mL) • g. Adjust to pH 8.00±0.02 with 1N NaOH. B. Composition of the Second Dip: • a. Acetone • b. […] KOK-10071 polymer (from Bayer Corporation) (0.1% by weight) Data were obtained by dipping the strips into the samples set out in Table 1 and placing them in a […] 50 spectrometer from Bayer Diagnostics to collect data at 15 and 60 seconds after dipping. Decode values were calculated using the equation: decode={[(B15+G15)-(B60+G60)]/(B15+G15)}*1000 Where: • B15 is the reflectance of the blue wavelength at 15 seconds, • B60 is the reflectance of the blue wavelength at 60 seconds, • G15 is the reflectance of the green wavelength at 15 seconds, and • […] is the reflectance of the green wavelength at 60 seconds.

In assay [2] the target is T1, Bovine Pancreatic Trypsin. Nature of the assay: Dry-phase analytical element for trypsin detection, colour with MMBD diazonium salt. To be noted: within one minute. Type of assay: biochemical. As to the method:
(§1) Reagent strips were made according to the following procedure: Filter paper (240 C grade from Ahlstrom Inc.) was saturated with the first dip solution and dried at ambient temperature for 2 hours, then at 110° C. for 5 minutes. The resultant paper was saturated with the second dip solution and dried for about 1 minute at 60° C. to form the completed, white reagent paper. The paper was then cut into pads, which were 0.25 inch×0.25 inches square.
(§2) A. Composition of the First Dip:
• a. Water (25.0 mL) • b. Ethylene glycol bis (β-aminoethyl ether) N,N,N′,N′-tetra-acetic acid (EGTA) (0.06 g) • c. Plasdone (PVP K30 from Sigma-Aldrich) (0.438 g) • d. MgSO4 (1.08 g) B. Composition of the Second Dip: • a. Acetone (7.75 mL) • b. Example 3 trypsin substrate (4-(Nα-tosyl-NG-nitro-L-argininyloxy)-2-phenyl-5H-thiazole, 3.1 mg) • c. 2-Methoxy-4-morpholinobenzene diazonium chloride, zinc chloride double salt (MMBD) (diazonium coupling agent) (2.5 mg)
Identical pads were separately wetted with 25 μL portions of two different test solutions. One test solution was 50 mM pH=8 phosphate buffer (control solution) and the second was 50 mM pH=8 phosphate buffer containing 10,000 U/mL of bovine pancreatic trypsin (test solution).

In the next assay the target is T2, trypsin (Bos taurus, UniProt P00760).
T2 sequence (P00760 24-246): T1 sequence (P00760 24-246)
Nature of the assay: Modified liquid assay with reagent pads, rate of fluorescent emission increase. It counts as biochemical, bovine. To be noted: pH=7 buffer, excitation 335 nm. As to the method: Trypsin concentrations may be instrumentally determined with the reagent pads in a modified liquid assay. Three reagent pads are extracted with 2.0 mL of 50 mM pH=7 buffer containing 0-20 u/mL of trypsin. Fluorescent emission at 385 nm is measured with a Perkin-Elmer Model LS-5 fluorescence spectrophotometer using excitation at 335 nm, and is reported in luminescence units (LU). The rate of increase of emission at 385 nm was determined graphically from the plot of LU vs. time output by the instrument.

Assay [3] addresses T1, Bovine Pancreatic Trypsin. The assay can be described thus: Dry-phase analytical element for trypsin detection, fluorescence under 365 nm UV. It counts as biochemical. To be noted: within one minute. As to the method:
as §1, §2
• a. Water (24.55 mL) • b. Ethylene glycol bis (β-aminoethyl ether) N,N,N′,N′-tetra-acetic acid (EGTA) (0.06 g) • c. Plasdone (PVP K30 from Sigma-Aldrich) (0.876 g) • d. MgSO4 (1.08 g) B. Composition of the Second Dip: • a. Acetone (9.3 mL) • b. Acetic acid (0.108 mL) • c. Example 5 trypsin substrate (7-(Nα-tosyl-NG-nitro-L-argininyloxy)-4-methylcoumarin, 5.0 mg)
Identical pads were separately wetted with 25 μL portions of two different test solutions and viewed under long wavelength (365 nm) ultraviolet light illumination. One test solution was 50 mM pH=7 phosphate buffer (control solution) and the second was 50 mM pH=7 phosphate buffer containing 10,000 U/mL of bovine pancreatic trypsin (test solution).

For `Cc1ccc(S(=O)(=O)NC(CCCN=C(N)N[N+](=O)[O-])C(=O)Oc2c[nH]c3ccccc23)cc1` [Example 2, 3-(Nα-tosyl-NG-nitro-L-argininyloxy)indole], in assay [1], the “decode, Negative Sample” value stood at 422 and the “decode, Positive Sample” value was found to be 168.

For `Cc1ccc(S(=O)(=O)N=C(N)NCCC[C@H](NS(=O)(=O)c2ccc(C)cc2)C(=O)Oc2c[nH]c(-c3ccccc3)c2)cc1` [Example 4, 3-(Nα-tosyl-NG-tosyl-L-argininyloxy)-5-phenylpyrrole], in assay [1], the “decode, Negative Sample” value is 61 and the “decode, Positive Sample” value was determined as 30.

`Cc1ccc(S(=O)(=O)N[C@@H](CCCNC(N)=N[N+](=O)[O-])C(=O)Oc2csc(-c3ccccc3)n2)cc1` [Example 3, 4-(Nα-tosyl-NG-nitro-L-argininyloxy)-2-phenyl-5H-thiazole]: the “pad colour, test solution” value in assay [2] (50 mM pH=8 phosphate buffer containing 10,000 U/mL bovine pancreatic trypsin) is given as “turned blue”. For the same compound, in assay [2] (50 mM pH=8 phosphate buffer without trypsin), the “pad colour, control solution” value is “remained white”.

`Cc1ccc(S(=O)(=O)N[C@@H](CCCNC(N)=N[N+](=O)[O-])C(=O)Oc2c[nH]c(-c3ccccc3)c2)cc1` [Example 1, 3-(Nα-tosyl-NG-nitro-L-argininyloxy)-5-phenylpyrrole]: in assay [1], the “decode, Negative Sample” value came out at 474 and the “decode, Positive Sample” value is 212.

`Cc1ccc(S(=O)(=O)N[C@@H](CCCNC(=N)N[N+](=O)[O-])C(=O)Oc2ccc3c(C)cc(=O)oc3c2)cc1` [Example 5, 7-(Nα-tosyl-NG-nitro-L-argininyloxy)-4-methylcoumarin]: the “Rate of 385 nm emission increase” value on trypsin (Trypsin concentration 0 U/mL) is 0.36 LU/mm; at trypsin (Trypsin concentration 5 U/mL) it was 1.21 LU/mm and 2.35 LU/mm; on trypsin (Trypsin concentration 10 U/mL) it was 2.38 LU/mm and 2.08 LU/mm; on trypsin (Trypsin concentration 20 U/mL), 3.75 LU/mm. Moreover, the “pad fluorescence, test solution” value in assay [3] (50 mM pH=7 phosphate buffer containing 10,000 U/mL bovine pancreatic trypsin) was “fluorescing brightly”. Further, the “pad fluorescence, control solution” value in assay [3] (50 mM pH=7 phosphate buffer without trypsin) was “remained dull and non-fluorescent”.
